Read-outs that look alike come from different tables or passages of the source.
Legend:
[1] = molecular target: homophthalazine binding site; test: Displacement of 3H-girisopam from the homophthalazine binding site in rat brain striatal membrane preparation; settings: displacing 5 nM 3H-girisopam
Experimental: Ki values were calculated according to the following equation: Ki = IC50 :(1 +([L])/(KD)), [formula] wherein KD is the dissociation constant of the labelled ligand-receptor complex, [L] is the concentration of the labelled ligand and IC50 is the half maximal inhibitory concentration of the test compound.

Catalepsy in mice = test: Cataleptic effect in mice (Schlichtegroll); type: in vivo; settings: p.o.
Experimental: (§1) The cataleptic effect of the compounds was measured both in mice (Schlichtegroll: Arzneim. Forsch., 8, 489, [1958]) and in rats (Morpurgo: Arch. Int. Pharmacodyn., 137, 87, [1962]).

Catalepsy in rats = test: Cataleptic effect in rats (Morpurgo); type: in vivo; settings: p.o.
Experimental: as §1

[2] = tested on: spontaneous motor activity (SMA) in mice; test: Behavioural effects according to Irwin (decrease in spontaneous motor activity); type: in vivo; design: key: ++ strong; + moderate; +- slight decrease in spon-taneous motor activity [SMA]
Experimental: (§2) The behavioural effects of 1-[2'-(substituted) vinyl]-5H-2,3-benzodiazepine derivatives according to the invention and of reference substances were measured according to the method of Irwin (Psychopharmacology, 13, 222 [1968]). The results and the acute toxicity data (dead/treated animals, shown in brackets) can be seen in the following Table II
(§3) From the above Table II it can be taken that the 1-[2'-(substituted) vinyl]-5H-2,3-benzodiazepine derivatives according to the invention considerably decrease the spontaneous motor activity (SMA) in mice after intraperitoneal or oral administration.

mice = test: Acute toxicity (dead/treated animals) in the Irwin test; type: in vivo
Experimental: as §2, §3

[3] = tested on: spontaneous motor activity of mice; test: Inhibition of spontaneous motor activity according to Borsy et al.; type: in vivo; settings: Mus musculus, po, 0.5 h
Experimental: The potential antipsychotic activity of 1-[2'-(substituted) vinyl]-5H-2,3-benzodiazepine derivatives according to the invention and of reference substances was tested according to the method of Puech et al. (Psychopharmacology, 75, 84, [1981] by measuring their inhibiting effect on the "climbing" reaction induced by 5,6,6a,7-tetra-(hydro)-6-(methyl)-4H-dibenzo[de,g]quinoline-10,11-di-(ol){apomorphine}. The results have been expressed as ED50 values. Since the inhibition of the spontaneous motor activity (SMA) is an important characteristic of the antipsychotic drugs, the ED50 values of a number of compounds were determined according to the method of Borsy et al. (Arch. Int. Pharmacodyn., 124, 1, 196).
The effect of the 1-[2'-(substituted) vinyl]-5H-2,3-benzodiazepine derivatives according to the invention on the spontaneous motor activity was tested according to the method of Borsy et al. Groups consisting of 3 mice were treated orally with different doses of the compounds to be tested. Then the animals were placed into a 10-channel Dews system equipment, wherein the number of interruptions of infrared beam within 30 minutes was counted. […]

rats = test: Elevated plus-maze test (Pellow), anxiolytic activity; type: in vivo; settings: Rattus norvegicus, po, 1 h; p.o., elevated plus maze, Sprague Dawley rats, 60 minutes pretreatment, significant increase of time spent on open arms; read-out: Minimum effective dose
Description: The anxiolytic activity was studied in rats according to the "lick-conflict" test elaborated by Vogel et al. (Psychopharmacology, 21, 1, [1971] and the elevated plus-maze test described by Pellow (Pellow, J.: Neurosci. Meth. 14, 149, [1985]). The antiaggressive effect was investigated in mice using the "fighting behaviour" method of Tedeschi (J. Pharm. Exp. Ther., 125, 28, [1959]). The minimal effective dose (MED) values and the ED50 values obtained are shown in the following Table V.
The anxiolytic activity of these compounds was investigated in the elevated plus maze test. Male rats belonging to the Sprague Dawley strain and weighing 220 to 260 g were used as test animals. The test was carried out with the aid of a wooden plus-shaped maze elevated to a height of 50 cm and containing two enclosed and two open arms (50 cm long and 15 cm wide). After 60 minutes pretreatment the animals were placed into the maze and observed for 5 minutes. The drug effect was expressed as percent increase of the time spent on the open arms and number of open arm entries. The minimum effective dose (MED) which caused a significant increase of the time spent on the open arms was calculated for every substance [Pelow, S., Chopin, P., File, S.E., Briley, M.: J. Neurosci. Methods 14, 149 to 167 [1985]).

[4] = p.o., mice, interruptions of infrared beam within 30 minutes, read-out: ID50 (the source's name)

SMILES	Ki [1]	Behaviour ([2]; 300 mg/kg i.p.)	Behaviour ([2]; 1000 mg/kg p.o.)	acute toxicity (dead/treated animals) (mice; 300 mg/kg i.p.)	acute toxicity (dead/treated animals) (mice; 1000 mg/kg p.o.)	further results
COc1ccc(C=CC2=NN=C(C)Cc3cc(OC)c(OC)cc32)cc1 [Example 9]	18 nM	–	–	–	–	–
COc1cc2c(cc1OC)C(C=Cc1ccc([N+](=O)[O-])cc1)=NN=C(C)C2 [Example 12]	17 nM	–	–	–	–	–
COc1ccc(C=CC2=NN=C(C)Cc3cc(OC)c(OC)cc32)cc1C [Example 14]	16 nM	–	–	–	–	–
COc1cc2c(cc1OC)C(C=Cc1ccc(OC(C)C)cc1)=NN=C(C)C2 [Example 15]	13 nM	–	–	–	–	–
COc1cc2c(cc1OC)C(C=Cc1cccc(OC(C)C)c1)=NN=C(C)C2 [Example 16]	11 nM	–	–	–	–	–
COc1cc2c(cc1OC)C(C=Cc1ccccc1OC(C)C)=NN=C(C)C2 [Example 18]	18 nM	–	–	–	–	–
COc1cc2c(cc1OC)C(C=Cc1ccc3c(c1OC)OCO3)=NN=C(C)C2 [Example 21]	8 nM	–	–	–	–	Catalepsy in mice Minimal effective dose [MED] (Catalepsy in mice): >100 mg/kg; Catalepsy in rats Minimal effective dose [MED] (Catalepsy in rats): >100 mg/kg
COc1cc2c(cc1OC)C(C=Cc1ccc(F)cc1)=NN=C(C)C2 [Example 28]	12 nM	–	–	–	–	–
COc1cc2c(cc1OC)C(C=Cc1ccccc1)=NN=C(C)C2 [Example 33]	12 nM	–	–	–	–	–
COc1cc2c(cc1OC)C(C=Cc1ccccc1Br)=NN=C(C)C2 [Example 36]	10 nM	–	–	–	–	–
CCC1C(C)=NN=C(C=Cc2ccc(N(C)C)cc2)c2cc(OC)c(OC)cc21 (stereo not shown) [Example 37]	–	+ +	+ +	0/5	4/5	–
COc1cc2c(cc1OC)C(C=Cc1ccc(OC)c(C(C)C)c1)=NN=C(C)C2 [Example 40]	–	+ +	+ +	0/5	4/5	–
CCCc1cc(C=CC2=NN=C(C)Cc3cc(OC)c(OC)cc32)ccc1OC [Example 41]	16 nM	–	–	–	–	–
COc1cc2c(cc1OC)C(C=Cc1ccccc1C)=NN=C(C)C2 [Example 42]	11 nM	+ +	+ +	0/5	0/5	–
COc1cc2c(cc1OC)C(C=Cc1ccc(C(F)(F)F)cc1)=NN=C(C)C2 [Example 45]	15 nM	–	–	–	–	–
CCC1C(C)=NN=C(C=Cc2cccc(Cl)c2)c2cc(OC)c(OC)cc21 (stereo not shown) [Example 48]	19 nM	+	+-	0/5	0/5	–
CCN(CC)c1ccc(C=CC2=NN=C(C)Cc3cc(OC)c(OC)cc32)cc1 [Example 49]	10 nM	+ +	+ +	0/5	3/5	–
COc1cc2c(cc1OC)C(C=Cc1cccc(Cl)c1)=NN=C(C)C2 [Example 51]	19 nM	+	+ +	0/6	0/6	Catalepsy in mice Minimal effective dose [MED] (Catalepsy in mice): 100 mg/kg; Catalepsy in rats Minimal effective dose [MED] (Catalepsy in rats): >100 mg/kg

SMILES	Ki [1]	Behaviour ([2]; 300 mg/kg i.p.)	Behaviour ([2]; 1000 mg/kg p.o.)	acute toxicity (dead/treated animals) (mice; 300 mg/kg i.p.)	acute toxicity (dead/treated animals) (mice; 1000 mg/kg p.o.)	further results
COc1cc2c(cc1OC)C(C=Cc1ccccc1Cl)=NN=C(C)C2 [Example 54]	–	+	+	2/5	2/5	–
COc1ccc(C=CC2=NN=C(C)Cc3cc(OC)c(OC)cc32)cc1Cl [Example 55]	11 nM	–	–	–	–	–
COc1cc(OC)c(C=CC2=NN=C(C)Cc3cc(OC)c(OC)cc32)c(OC)c1 [Example 58]	19 nM	+	+ +	0/5	0/5	–
COc1cc(OC)c(OC)cc1C=CC1=NN=C(C)Cc2cc(OC)c(OC)cc21 [Example 59]	16 nM	–	–	–	–	–
CCC1C(C)=NN=C(C=Cc2ccc(OC)c(OC)c2)c2cc(OC)c(OC)cc21 (stereo not shown) [Example 64]	–	+	+-	0/5	0/5	–
COc1cc2c(cc1OC)C(C=Cc1ccc3c(c1)OCO3)=NN=C(C)C2 [Example 67]	5 nM	+-	+	0/6	0/6	Catalepsy in mice Minimal effective dose [MED] (Catalepsy in mice): >100 mg/kg; Catalepsy in rats Minimal effective dose [MED] (Catalepsy in rats): >100 mg/kg
COc1cc2c(cc1OC)C(C=Cc1c[nH]c3ccccc13)=NN=C(C)C2 [Example 71]	5 nM	–	–	–	–	–
COc1cc2c(cc1OC)C(C=Cc1cccc(N)c1)=NN=C(C)C2 [Example 74]	14 nM	–	–	–	–	–
COc1cc2c(cc1OC)C(C=Cc1ccc(Cl)c(N)c1)=NN=C(C)C2 [Example 77]	10 nM	+ +	+ +	0/5	0/5	–
COc1cc2c(cc1OC)C(C=Cc1ccc(Cl)c(NC(C)=O)c1)=NN=C(C)C2 [Example 85, 1-[3'-(Acetylamino)-4-(chloro)-styryl]-4-[methyl]-7,8-di-[methoxy]-5H-2,3-benzodiazepine]	14 nM	+-	+	0/5	0/5	–
CC1=NN=C(C=Cc2ccc(F)cc2)c2cc3c(cc2C1)OCO3 [Example 86, 1-[4'-(Fluoro)-styryl]-4-[methyl]-7,8-[methylenedioxy]-5H-2,3-benzodiazepine]	–	–	–	–	–	ED50 [3, 4]: > 100 mg/kg; minimal effective dose (rats): 0.003 mg/kg
CC1=NN=C(C=Cc2ccc(C(F)(F)F)cc2)c2cc3c(cc2C1)OCO3 [Example 87, 1-[4'-(Trifluoromethyl)-styryl]-4-[methyl]-7,8-[methylenedioxy]-5H-2,3-benzodiazepine]	–	–	–	–	–	ED50 [3, 4]: > 100 mg/kg; minimal effective dose (rats): 0.1 mg/kg
CC1=NN=C(C=Cc2ccc(C#N)cc2)c2cc3c(cc2C1)OCO3 [Example 88, 1-[4'-(Cyano)-styryl]-4-[methyl]-7,8-[methylenedioxy]-5H-2,3-benzodiazepine]	–	–	–	–	–	ED50 [3, 4]: > 100 mg/kg
CC1=NN=C(C=Cc2cccc(F)c2)c2cc3c(cc2C1)OCO3 [Example 89, 1-[3'-(Fluoro)-styryl]-4-[methyl]-7,8-[methylenedioxy]-5H-2,3-benzodiazepine]	–	–	–	–	–	minimal effective dose (rats): 0.3 mg/kg
CC1=NN=C(C=Cc2ccccc2F)c2cc3c(cc2C1)OCO3 [Example 90, 1-[2'-(Fluoro)-styryl)-4-[methyl]-7,8-[methylenedioxy]-5H-2,3-benzodiazepine]	–	–	–	–	–	minimal effective dose (rats): 0.3 mg/kg
CC1=NN=C(C=Cc2ccc(F)cc2)c2c(ccc3c2OCO3)C1 [Example 91, 1-[4'-(Fluoro)-styryl]-4-[methyl]-8,9-[methylenedioxy]-5H-2,3-benzodiazepine]	–	–	–	–	–	ED50 [3, 4]: > 100 mg/kg
CC1Cc2cc3c(cc2C(C=Cc2ccc(F)cc2)=NN1)OCO3 (stereo not shown) [Example 92, 1-[4'-(Fluoro)-styryl]-4-[methyl]-7,8-[methylenedioxy]-3,4-di-[hydro]-5H-2,3-benzodiazepine]	–	–	–	–	–	minimal effective dose (rats): 1 mg/kg
CN1C(=O)CN=C(c2ccccc2)c2cc(Cl)ccc21 [diazepam, 7-(chloro)-2,3-di-(hydro)-1-(methyl)-5-(phenyl)-1H-1,4-benzodiazepin-2-(one), reference compound]	–	–	–	–	–	ED50 ([3]; read-out: ID50): 23 mg/kg

From patent EP0726257A1, “1-(Hetero)Arylvinyl-5H-2,3-benzodiazepine derivatives useful for the treatment of central nervous system disorders, and benzopyrylium intermediates for their preparation” (EGIS GYOGYSZERGYAR RT., priority 1995, dated 1996)
